Results taken from US20220110916A1, “Antioxidant and Use Thereof” (Bioradical Research Institute Corp., priority 2019, published 2022).

Tests used:
[1] = Storage stability in pH7.4-PBS or pure water at 37° C. protected from light, residual rate by HPLC; format: physicochemical; details: 200 μmol/l; for Residual rate (%) After 1 week / Residual rate (%) After 2 weeks: 37° C., protected from light; for Residual rate (%) Initial concentration: initial concentration (reference 100%)
Description: The storage stability of edaravone, EMPO, ED2AP, and BisEp-C3 of the following formula (A) were examined. Specifically, edaravone, EMPO, ED2AP, and BisEp-C3 were dissolved in pH7.4-PBS or pure water so as to have a final concentration of 200 μmol/l to prepare dissolved solutions of these compounds. When the compounds were difficult to be dissolved, they were dissolved in an ultrasonic cleaner with warm water at 40° C.
Under the measurement conditions for HPLC described below, the initial concentration was quantified, and then each solution was stored in an oven, which was protected from light, at 37° C., and quantified under the same measurement conditions after 1 week and 2 weeks, to determine residual rate (%) with the initial concentration (100%) being a reference.
Measurement conditions for HPLC
PDA detector (Format: SPD-M20A) HPLC Assay Conditions:
Column: Atlantis dC18 5 μm (250×4.6 mm I.D.; produced by Waters)
Column temperature: 45° C.
Detection method: UV (254 nm)
Eluate A: pH3 buffer solution (adjusted to pH3 by adding phosphoric acid to 0.05M KH2PO4 aqueous solution)/methanol=90/10

[2] = test system: neutrophils isolated from the peripheral blood of healthy individuals; experiment: Superoxide production amount of PMA-stimulated neutrophils, CLA chemiluminescence; format: cell-based, human; details: for relative value of the superoxide production amount: 0-200 μmol/l or 0-5000 μmol/l, PMA 100 ng/ml, control being 100, FIG. 2; for reactive oxygen species-eliminating ability compared with edaravone: PMA-stimulated neutrophils, FIG. 2(A)
Description: For examining the reactive oxygen-eliminating effect of the antioxidant of the present invention, the superoxide produced by the neutrophils when the neutrophils isolated from the peripheral blood of healthy individuals were stimulated with PMA (phorbor-12-myristate-13-acetate) was used. The superoxide production amount was measured by chemiluminescence using CLA (2-methyl-6-pjenyl-3, 7-dihydroimidazo[1,2-a]pyrazine-3-one).
(§1) First, ED2AP, BisEp-C3, edaravone, BisEp-C1, or BisEp-C1 (H2) was added to a neutrophil of 4×10^5 cells per sample so as to achieve a predetermined concentration (0, 12.5, 25, 50, 100, or 200 μmol/l, or 0, 125, 250, 500, 1250, 2500, or 5000 μmol/l) with 5 μmol of CLA, and then the cell suspension was seeded in flat-bottomed 96-well plates. The volume of the suspension was 200 μl/well, and phenol red free Ca+, Mg+ HBSS was used as the solution. In addition, the neutrophil was stimulated by adding PMA so as to achieve a concentration of 100 ng/ml. After the stimulation, a plate reader (Envision 2104 Multilabel Reader, produced by Perkin Elmer Co., Ltd.) was used to measure the chemiluminescence value over time for 30 minutes with the PMA stimulation time being a reference. The measurement interval was 30 seconds. The sum of the chemiluminescence values obtained every 30 seconds for 30 minutes was taken as the superoxide production amount. In addition, as a control, the superoxide production amount was measured in the same manner except that each compound was not added. The relative value of the superoxide production amount when each compound was added was calculated with the superoxide production amount of the control being 100.

[3] = test system: neutrophils isolated from the peripheral blood of healthy individuals; experiment: Superoxide production amount of PMA-stimulated neutrophils with PBS solutions stored for 10 days vs immediately after preparation; format: cell-based, human; details: PBS solution stored for 10 days vs immediately after preparation; 0, 6.25, 12.5, 25, 50, 100 or 20 μmol/l; FIG. 4
Description: as §1
PBS solutions of ED2AP, BisEp-C3, and edaravone were prepared in the same manner as in Example 2 and stored for 10 days. The superoxide production amount was calculated in the same manner as in Example 4 except that the PBS solution after storage was added instead of ED2AP, BisEp-C3, edaravone, BisEp-C1 or BisEp-C1 (H2) so as to achieve a predetermined concentration (0, 6.25, 12.5, 25, 50, 100 or 20 μmol/l) of ED2AP, BisEp-C3 or edaravone. Further, PBS solutions of ED2AP, BisEp-C3, and edaravone were prepared in the same manner as in Example 2, and the superoxide production amount was calculated in the same manner except that the PBS solution immediately after preparation was used. Then, the relative value of the superoxide production amount of each sample was calculated with the superoxide production amount of the sample of 0 μmol/l being 100.

rat neuroid cells B50 = experiment: Toxicity evaluation, cell viability by Alamar Blue after 24 hours; format: cell-based; details: 12.5, 25, 50, 100, or 200 μmol/l, FIG. 5
Description: Rat neuroid cells B50 were seeded in 12-well plates and then cultured. Edaravone (RC), ED2AP, or BisEp-C3 was added to each well so as to achieve a predetermined concentration (12.5, 25, 50, 100, or 200 μmol/l), and then incubated for 24 hours at 37° C. and 5% CO2. Cell viability in each well after the culture was measured using Alamar Blue.

| Residual rate (%) After 1 week ([1]; Pure water) [%] | Residual rate (%) After 2 weeks ([1]; Pure water) [%] | Residual rate (%) Initial concentration ([1]; Pure water) [%] | Residual rate (%) After 1 week ([1]; pH 7.4-PBS) [%] | Residual rate (%) After 2 weeks ([1]; pH 7.4-PBS) [%] | Residual rate (%) Initial concentration ([1]; pH 7.4-PBS) [%] | SMILES | relative value of the superoxide production amount [2] | reactive oxygen species-eliminating ability compared with edaravone [2] | superoxide-eliminating ability after storage [3] | cytotoxicity (cell viability) (rat neuroid cells B50) |
| --- | --- | --- | --- | --- | --- | --- | --- | --- | --- | --- |
| 99.4 | 88.5 | 100 | 98.7 | 93.6 | 100 | CCN1N=C(C)/C(=C\C=C\c2c(C)nn(CC)c2O)C1=O (racemic) [BisEp-C3, 2,4-dihydro-4-[3-(1-ethyl-5-hydroxy-3-methyl-1H-pyrazol-4-yl)-2-propen-1-ylidene]-2-ethyl-5-methyl-3H-pyrazol-3-one] | suppressed the superoxide production amount in a concentration-dependent manner | more potent than edaravone at high concentrations | maintained the superoxide-eliminating ability equivalent to that immediately after preparation even after storage | not cytotoxic at any concentration |
| 96.1 | 89.8 | 100 | 96.2 | 91.3 | 100 | CC1=NN(c2ccccc2)C(=O)/C1=C/C=C/c1c(C)nn(-c2ccccc2)c1O (racemic) [ED2AP, 2,4-dihydro-4-[3-(5-hydroxy-3-methyl-1-phenyl-1H-pyrazol-4-yl)-2-propen-1-ylidene]-5-methyl-2-phenyl-3H-pyrazol-3-one] | suppressed the superoxide production amount in a concentration-dependent manner | more potent than edaravone at high concentrations | maintained the superoxide-eliminating ability equivalent to that immediately after preparation even after storage | not cytotoxic at any concentration |
